US7179825B2, “Retinoic acid mimetic anilides” (Janssen Pharmaceutica N.V., priority 1997, dated 2007)

Legend:
Ovariectomized rats = experiment: Vaginal keratinization test on ovariectomized rats (Example C.2); assay type: in vivo; details: estradiol undecylate induced keratinization, per os once daily on days 1-3, active dose = 50% of rats show complete suppression
Summary of the method: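 Value is the lowest oral dose (mg/kg) at which half of tested rats show complete suppression of estradiol undecylate-induced vaginal keratinization by histology. Ovariectomized rats received 100 μg/100 g estradiol undecylate s.c., then compound or PEG 200 vehicle p.o. daily for three days; sacrifice one day later.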

[1] = test system: metabolism of retinoic acid in human breast cancer cells; experiment: Inhibition of retinoic acid (RA) metabolism (Example C.1); assay type: cell-based; details: MCF-7 human breast cancer cells, 3H-RA as substrate; concentration needed to reduce the amount of metabolites to 50% of the control
Summary of the method: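 Test compound (in 1% DMSO) added at several concentrations to MCF-7 cell suspensions fed ³H-RA, after RA induction of metabolism one day earlier. Scintillation counting of the separated polar metabolite fraction; IC50 = concentration giving 50% of control metabolite level.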

| SMILES | LAD (lowest active dose) (Ovariectomized rats) [mg/kg] | IC50 [1] [nM] |
| --- | --- | --- |
| C/C(=C\c1ccc(C(F)(F)F)cc1)C(=O)Nc1ccc(C(C(C)C)n2cncn2)cc1 (centres unmarked) [Compound 159] | >10.00 | > 100 |
| CC(C)C(c1ccc(NC(=O)C2Oc3ccccc3O2)cc1)n1cncn1 (centres unmarked) [Compound 161] | >2.50 | 1.87 |
| CC(C)C(c1ccc(NC(=O)CC2COc3ccccc3O2)cc1)n1cncn1 (centres unmarked) [Compound 162] | >5.00 | 2.88 |
| CC(C)C(c1ccc(NC(=O)C2COc3ccccc3O2)cc1)n1ccnc1 (centres unmarked) [Compound 175] | 10.00 | 4.83 |
| CC(C)C(c1ccc(NC(=O)c2cccc3ccccc23)cc1)n1ccnc1 (centres unmarked) [Compound 182] | 10.00 | 13.1 |
| CCOC(=O)Nc1ccc(C(C(C)C)n2ccnc2)cc1 (centres unmarked) [Compound 183] | >10.00 | 7.4 |
| CC(C)C(c1ccc(NC(=O)c2cccs2)cc1)n1ccnc1 (centres unmarked) [Compound 187] | >10.00 | 18.8 |
| CC(C)C(c1ccc(NC(=O)C2(c3ccccc3)CC2)cc1)n1ccnc1 (centres unmarked) [Compound 190] | >10.00 | > 100 |
| CC(C)C(c1ccc(NC(=O)C2(c3ccccc3)CCCC2)cc1)n1ccnc1 (centres unmarked) [Compound 191] | >10.00 | > 100 |
| CC(C)C(c1ccc(NC(=O)c2cccn2C)cc1)n1ccnc1 (centres unmarked) [Compound 195] | >10.00 | 35.1 |
| CC(C)C(c1ccc(NC(=O)C2CC2)cc1)n1ccnc1 (centres unmarked) [Compound 199] | >10.00 | 7.82 |
| CC(C)C(c1ccc(NC(=O)C2(c3ccccc3)CCCCC2)cc1)n1ccnc1 (centres unmarked) [Compound 200] | >10.00 | 44.3 |
| CC/C(=C(\C)C(=O)Nc1ccc(C(C(C)C)n2ccnc2)cc1)c1ccccc1 (centres unmarked) [Compound 203] | >10.00 | 22.8 |
| COCC(=O)Nc1ccc(C(C(C)C)n2ccnc2)cc1 (centres unmarked) [Compound 212] | 20.00 | 4.07 |
| CC(C)C(c1ccc(NC(=O)c2ccc3nccnc3c2)cc1)n1ccnc1 (centres unmarked) [Compound 214] | 20.00 | 3.37 |
| CC(C)C(c1ccc(NC(=O)C2CCc3ccccc3O2)cc1)n1ccnc1 (centres unmarked) [Compound 217] | 10.00 | 5.14 |
| CC(C)C(c1ccc(NC(=O)c2cccc(F)c2)cc1)n1ccnc1 (centres unmarked) [Compound 221] | 10.00 | 1.08 |
| CC(C)C(c1ccc(NC(=O)CSc2ncccn2)cc1)n1ccnc1 (centres unmarked) [Compound 224] | >10.00 | 4.73 |
| CC(C)C(c1ccc(NC(=O)c2nccc3ccccc23)cc1)n1ccnc1 (centres unmarked) [Compound 229] | >10.00 | 1.64 |
| CC(C)C(c1ccc(NC(=O)C2=COc3ccccc3O2)cc1)n1ccnc1 (centres unmarked) [Compound 234] | 10.00 | 3.01 |
| CC(C)C(c1ccc(NC(=O)C2Oc3ccccc3O2)cc1)n1ccnc1 (centres unmarked) [Compound 248] | 2.50 | 1.79 |

| SMILES | LAD (lowest active dose) (Ovariectomized rats) [mg/kg] | IC50 [1] [nM] |
| --- | --- | --- |
| CC(O)C(=O)Nc1ccc(C(C(C)C)n2ccnc2)cc1 (centres unmarked) [Compound 249] | 5.00 | 75.8 |
| Cc1onc(-c2ccccc2)c1C(=O)Nc1ccc(C(C(C)C)n2ccnc2)cc1 (centres unmarked) [Compound 250] | >10.00 | 14.9 |
| CC(C)C(c1ccc(NC(=O)Cc2cccnc2)cc1)n1ccnc1 (centres unmarked) [Compound 251] | 10.00 | 3.93 |
| CNC(=O)Nc1ccc(C(C(C)C)n2ccnc2)cc1 (centres unmarked) [Compound 267] | >10.00 | 7.75 |
| CC(C)C(c1ccc(NC(=O)NCc2ccccc2)cc1)n1ccnc1 (centres unmarked) [Compound 269] | >10.00 | 2.66 |
| CC(C)C(c1ccc(NC(=O)NCc2ccc(Cl)cc2)cc1)n1ccnc1 (centres unmarked) [Compound 273] | >10.00 | 52.7 |
| CC(C)CCC(c1ccc(NC(=O)Cc2ccc(Cl)cc2)cc1)n1ccnc1 (centres unmarked) [Compound 355] | >10.00 | > 100 |
| O=C(Cc1ccc(Cl)cc1)Nc1ccc(C(c2ccccc2)n2ccnc2)cc1 (centres unmarked) [Compound 357] | >10.00 | > 100 |
| O=C(Cc1ccc(Cl)cc1)Nc1ccc(C(c2cccc(C(F)(F)F)c2)n2ccnc2)cc1 (centres unmarked) [Compound 361] | 10.00 | > 100 |
| O=C(Cc1ccc(Cl)cc1)Nc1ccc(C(C2CCCCC2)n2ccnc2)cc1 (centres unmarked) [Compound 362] | 10.00 | 14.3 |
| CCCC(c1ccc(NC(=O)Cc2ccc(Cl)cc2)cc1)n1ccnc1 (centres unmarked) [Compound 363] | >10.00 | 1.42 |
| CC(C)(C)C(c1ccc(NC(=O)Cc2ccc(Cl)cc2)cc1)n1ccnc1 (centres unmarked) [Compound 365] | 10.00 | 1.08 |
| CCC(c1ccc(NC(=O)Cc2ccc(Cl)cc2)cc1)n1ccnc1 (centres unmarked) [Compound 372] | 5.00 | 1.97 |
| O=C(Nc1ccc(C(c2ccccc2)n2ccnc2)cc1)C(O)c1ccccc1 (centres unmarked) [Compound 420] | >20.00 | 83.8 |
| O=C(Nc1ccc(C(c2ccc(Cl)cc2)n2ccnc2)cc1)C(O)c1ccccc1 (centres unmarked) [Compound 423] | 20.00 | 40.8 |
| O=C(Nc1ccc(C(c2ccccc2)n2ccnc2)cc1)C1COc2ccccc2O1 (centres unmarked) [Compound 425] | >10.00 | 38.1 |
| O=C(CC1COc2ccccc2O1)Nc1ccc(C(c2ccccc2)n2ccnc2)cc1 (centres unmarked) [Compound 426] | >10.00 | > 100 |
| CCC(C)C(c1ccc(NC(=O)Cc2ccc(O)c(OC)c2)cc1)n1ccnc1 (centres unmarked) [Compound 432] | >2.50 | 0.81 |
| CC(C)C(c1ccc(NC(=O)C(=Cc2ccccc2)c2ccccc2)cc1)n1ccnc1 (centres unmarked) [Compound 454] | >20.00 | 52.5 |
| CC(C)/C(=C\c1ccccc1)C(=O)Nc1ccc(C(C(C)C)n2ccnc2)cc1 (centres unmarked) [Compound 471] | >10.00 | > 100 |
| C/C(=C\c1ccccc1)C(=O)Nc1ccc(C(CCC(C)C)n2ccnc2)cc1 (centres unmarked) [Compound 475] | >10.00 | > 100 |

| SMILES | LAD (lowest active dose) (Ovariectomized rats) [mg/kg] | IC50 [1] [nM] |
| --- | --- | --- |
| CC(=Cc1ccccc1)C(=O)Nc1ccc(C(CC(C)(C)C)n2ccnc2)cc1 (centres unmarked) [Compound 476] | >10.00 | 35.5 |
| C/C(=C\c1ccccc1)C(=O)Nc1ccc(C(/C=C/C(C)C)n2ccnc2)cc1 (centres unmarked) [Compound 479] | >10.00 | > 100 |
| CCCC(CCC)C(c1ccc(NC(=O)/C(C)=C/c2ccccc2)cc1)n1ccnc1 (centres unmarked) [Compound 486] | 5.00 | 27.7 |
| CC(=O)Nc1ccc(C(c2cccc(C(F)(F)F)c2)n2ccnc2)cc1 (centres unmarked) [Compound 524] | 20.00 | > 1000 |
| C/C(=C\c1ccncc1)C(=O)Nc1ccc(C(C(C)C)n2ccnc2)cc1 (centres unmarked) [Compound 576] | 10.00 | 20.1 |
| C/C(=C\c1ccc(C(F)(F)F)cc1)C(=O)Nc1ccc(C(C(C)C)n2ccnc2)cc1 (centres unmarked) [Compound 580] | 10.00 | 31.3 |
| C/C(=C\C1CCCCC1)C(=O)Nc1ccc(C(C(C)C)n2ccnc2)cc1 (centres unmarked) [Compound 581] | 20.00 | > 100 |
| COc1cccc(/C=C(\C)C(=O)Nc2ccc(C(C(C)C)n3ccnc3)cc2)c1 (centres unmarked) [Compound 584] | 10.00 | 6.51 |
| C/C(=C\C(C)C)C(=O)Nc1ccc(C(C(C)C)n2ccnc2)cc1 (centres unmarked) [Compound 588] | 10.00 | 48.8 |
| CC(=Cc1cc2ccccc2o1)C(=O)Nc1ccc(C(C(C)C)n2ccnc2)cc1 (centres unmarked) [Compound 600] | >10.00 | 36.7 |
| CC(=O)Nc1ccc(/C=C(\C)C(=O)Nc2ccc(C(C(C)C)n3ccnc3)cc2)cc1 (centres unmarked) [Compound 612] | 10.00 | 16.8 |
| CC(=O)Nc1ccc(C(c2cccc(C(F)(F)F)c2)n2cncn2)cc1 (centres unmarked) [Compound 613] | >20.00 | 1800 |
| CC(=O)Nc1ccc(C(c2cccc(F)c2)n2cncn2)cc1 (centres unmarked) [Compound 615] | >20.00 | > 1000 |
| COc1ccc(CC(=O)Nc2ccc(C(n3cncn3)C(C)(C)C)cc2)cc1OC.O (centres unmarked) [Compound 642] | 2.50 | 1.16 |
| CC(C)C(c1ccc(NC(=O)Cc2ccccc2)cc1)n1ccnc1 (centres unmarked) [Compound 650] | 10.00 | 4.86 |
| CC(C)C(c1ccc(NC(=O)Cc2ccc(Cl)cc2)cc1)n1ccnc1 (centres unmarked) [Compound 651] | 5.00 | 10.5 |
| CC(C)C(c1ccc(NC(=O)Cc2cccc(F)c2)cc1)n1ccnc1 (centres unmarked) [Compound 656] | 10.00 | 1.47 |
| CC(C(=O)Nc1ccc(C(C(C)C)n2ccnc2)cc1)c1ccccc1 (centres unmarked) [Compound 657] | >10.00 | 5.36 |
| COc1ccc(CC(=O)Nc2ccc(C(C(C)C)n3ccnc3)cc2)cc1 (centres unmarked) [Compound 662] | 5.00 | 0.358 |
